Assay results taken from patent publication US20200131156A1, “ARYLSULFONYLPYROLECARBOXAMIDE DERIVATIVES AS Kv3 POTASSIUM CHANNEL ACTIVATORS” (H. Lundbeck A/S, priority 2018, published 2020).

Molecular target: T1, hKv3.1b (Homo sapiens, UniProt P48547)
T1 construct: expressed in transfected cells
T1 sequence (P48547 1-585 isoform P48547-2): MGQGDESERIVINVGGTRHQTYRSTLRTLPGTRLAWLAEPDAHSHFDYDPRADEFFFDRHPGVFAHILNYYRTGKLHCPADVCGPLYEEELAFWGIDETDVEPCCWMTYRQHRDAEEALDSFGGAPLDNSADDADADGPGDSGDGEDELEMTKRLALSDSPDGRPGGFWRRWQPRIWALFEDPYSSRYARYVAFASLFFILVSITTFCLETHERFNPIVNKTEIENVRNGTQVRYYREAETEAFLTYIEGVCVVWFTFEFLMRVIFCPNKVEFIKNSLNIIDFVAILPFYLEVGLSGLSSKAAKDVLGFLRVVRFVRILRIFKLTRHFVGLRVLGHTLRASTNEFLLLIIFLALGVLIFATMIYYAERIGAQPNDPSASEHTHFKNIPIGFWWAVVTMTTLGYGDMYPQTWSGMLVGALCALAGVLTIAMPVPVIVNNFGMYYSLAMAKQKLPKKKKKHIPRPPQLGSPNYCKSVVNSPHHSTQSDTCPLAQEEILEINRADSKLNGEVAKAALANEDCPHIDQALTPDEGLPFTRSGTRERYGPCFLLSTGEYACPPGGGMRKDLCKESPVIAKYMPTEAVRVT
Assay: Automated patch clamp (QPatch-16x) on HEK-293 cells stably expressing hKv3.1b
Format: cell-based
Conditions: for ECdelta5 mV: concentration needed to shift the activation threshold 5 mV; for Threshold Shift: maximum absolute hyperpolarizing shift of activation threshold at tested concentrations 0.37-30 μM
Protocol: HEK-293 cells stably expressing hKv3.1b were used for the experiments. Cells were cultured in DMEM medium supplemented with 10% Fetal Bovine Serum, 100 ug/mL Geneticidin and 100 u/mL Penicillin/Streptomycin (all from Gibco). Cells were grown to 80-90% confluency at 37° C. and 5% CO2. On the day of the experiment the cells were detached from the tissue culture flasks by Detachin, resuspended in serum free medium containing 25 mM HEPES and transferred to the cell hotel of the QPatch. The cells were used for experiments 0-5 hours after detachment.
Patch-clamp recordings were performed using the automated recording system QPatch-16x (Sophion Bioscience, Denmark). Cells were centrifuged, SFM removed and the cells were resuspended in extracellular buffer containing (in mM): 145 NaCl, 4 KCl, 1 MgCl2, 2 CaCl2, 10 HEPES and 10 glucose (added fresh on the day of experiment); pH 7.4 adjusted with NaOH, 305 mOsm adjusted with sucrose.
Single cell whole-cell recordings were carried out using an intracellular solution containing (in mM): 120 KCl, 32.25/10 KOH/EGTA, 5.374 CaCl2, 1.75 MgCl2, 10 HEPES, 4 Na2ATP (added fresh on the day), pH 7.2 adjusted with KOH, […] adjusted with sucrose. Cell membrane potentials were held at −80 mV and currents were evoked by voltage steps (200 ms duration) from −70 mV to +10 mV (in 10 mV increments). Vehicle (0.33% DMSO) or increasing concentration of compound (I) were applied and the voltage protocol was run 3 times (resulting in 3 min cpd incubation time). Five increasing concentrations of compound (I) were applied to each cell.
Leak subtraction protocol was applied at −33% of the sweep amplitude, and serial resistance values were constantly monitored.
Any cell where serial resistance exceeded 25 MOhm, membrane resistance less than 200 MOhm or current size at −10 mV less than 200 pA was eliminated from the subsequent analysis.
Data analysis was performed using Sophion's QPatch assay software in combination with Microsoft Excel™ (Redmond, Wash., USA). Current voltage relationships were plotted from the peak current at the individual voltage steps normalized to the vehicle addition at 10 mV. The voltage threshold for channel activation was defined as 5% activation of the peak current at 10 mV in presence of vehicle. The activity of the compounds was described as the ability to shift this current voltage relationship to more hyperpolarized potentials and is given as the maximum absolute shift possible at the tested concentrations (0.37, 1.11, 3.33, 10, 30 μM). Concentration response curves were plotted from the threshold shift at the individual concentrations and were fitted excel fit model 205 sigmoidal dose-response model (fit=A+((B−A)/1+((C/x)^D)))), where A is the minimum value, B the maximum value, C the EC50 value and D the slope of the curve. The concentration needed to shift the threshold 5 mV was readout from this curve (ECdelta5 mV).

| Structure (SMILES) | ECdelta5 mV | Threshold Shift |
| --- | --- | --- |
| Cc1ccc(S(=O)(=O)n2ccc(C(=O)NCc3cnccn3)c2)cc1 [Compound 29, 1-(p-tolylsulfonyl)-N-(pyrazin-2-ylmethyl) pyrrole-3-carboxamide] | 1300 nM | 31 mV |
| Cc1ccc(S(=O)(=O)n2ccc(C(=O)NCc3cnn(C)n3)c2)cc1 [Compound 109, 1-(4-methylbenzene-1-sulfonyl)-N-[(2-methyl-2H-1,2,3-triazol-4-yl)methyl]-1H-pyrrole-3-carboxamide] | 1200 nM | 29 mV |
| COc1ccc(S(=O)(=O)n2ccc(C(=O)NCc3cnc(C)cn3)c2)c(F)c1 [Compound 96, 1-(2-fluoro-4-methoxy-phenyl)sulfonyl-N-[(5-methylpyrazin-2-yl)methyl]pyrrole-3-carboxamide] | 1300 nM | 35 mV |
| Cc1ccc(S(=O)(=O)n2ccc(C(=O)NCc3cc(C)no3)c2)cc1 [Compound 35, N-[(3-methylisoxazol-5-yl)methyl]-1-(p-tolylsulfonyl) pyrrole-3-carboxamide] | 1100 nM | 21 mV |
| Cc1cnc(CNC(=O)c2ccn(S(=O)(=O)c3cccc(F)c3)c2)cn1 [Compound 5, 1-(3-fluorophenyl)sulfonyl-N-[(5-methylpyrazin-2-yl)methyl]pyrrole-3-carboxamide] | 7800 nM | 10 mV |
| Cc1ccc(CNC(=O)c2ccn(S(=O)(=O)c3ccccc3)c2)nc1 [Compound 83, 1-(benzenesulfonyl)-N-[(5-methylpyridin-2-yl)methyl]-1H-pyrrole-3-carboxamide] | 5000 nM | 13 mV |
| Cc1cnc(CNC(=O)c2ccn(S(=O)(=O)c3ccc(F)c(C)c3)c2)cn1 [Compound 101, 1-(4-fluoro-3-methyl-phenyl)sulfonyl-N-[(5-methylpyrazin-2-yl)methyl]pyrrole-3-carboxamide] | 2000 nM | 23 mV |
| Cc1ccc(S(=O)(=O)n2ccc(C(=O)NCc3ccc(C)nc3)c2)cc1 [Compound 26, N-[(6-methyl-3-pyridyl)methyl]-1-(p-tolylsulfonyl)pyrrole-3-carboxamide] | 930 nM | 22 mV |
| Cc1ccc(S(=O)(=O)n2ccc(C(=O)NCc3ncccc3C)c2)cc1 [Compound 17, N-[(3-methyl-2-pyridyl)methyl]-1-(p-tolylsulfonyl)pyrrole-3-carboxamide] | 2300 nM | 16 mV |
| Cc1ccc(S(=O)(=O)n2ccc(C(=O)NCc3cnc(C)s3)c2)cc1 [Compound 114, 1-(4-methylbenzene-1-sulfonyl)-N-[(2-methyl-1,3-thiazol-5-yl)methyl]-1H-pyrrole-3-carboxamide] | 1600 nM | 15 mV |
| Cc1cc(C)c(S(=O)(=O)n2ccc(C(=O)NCc3cnc(C)cn3)c2)c(C)c1 [Compound 103, N-[(5-methylpyrazin-2-yl)methyl]-1-(2,4,6-trimethylphenyl)sulfonyl-pyrrole-3-carboxamide] | 720 nM | 24 mV |

Next, values leading:

| ECdelta5 mV | Threshold Shift | Structure (SMILES) |
| --- | --- | --- |
| 1700 nM | 14 mV | Cc1ccc(S(=O)(=O)n2ccc(C(=O)NCc3cccc(C)n3)c2)cc1 [Compound 15, N-[(6-methyl-2-pyridyl)methyl]-1-(p-tolylsulfonyl)pyrrole-3-carboxamide] |
| 6800 nM | 14 mV | Cc1ccc(S(=O)(=O)n2ccc(C(=O)NCc3nncs3)c2)cc1 [Compound 56, 1-(4-methylbenzene-1-sulfonyl)-N-[(1,3,4-thiadiazol-2-yl)methyl]-1H-pyrrole-3-carboxamide] |
| 1300 nM | 24 mV | COc1ncc(CNC(=O)c2ccn(S(=O)(=O)c3ccc(C)cc3F)c2)cn1 [Compound 110, 1-(2-fluoro-4-methylbenzene-1-sulfonyl)-N-[(2-methoxypyrimidin-5-yl)methyl]-1H-pyrrole-3-carboxamide] |
| 1400 nM | 32 mV | Cc1cnc(CNC(=O)c2ccn(S(=O)(=O)c3ccc4c(c3)CCO4)c2)cn1 [Compound 102, 1-(2,3-dihydrobenzofuran-5-ylsulfonyl)-N-[(5-methylpyrazin-2-yl)methyl]pyrrole-3-carboxamide] |
| 3500 nM | 10 mV | COc1ccc(CNC(=O)c2ccn(S(=O)(=O)c3ccc(C)cc3)c2)nc1 [Compound 18, N-[(5-methoxy-2-pyridyl)methyl]-1-(p-tolylsulfonyl) pyrrole-3-carboxamide] |
| 1300 nM | 16 mV | Cc1ccc(S(=O)(=O)n2ccc(C(=O)NCc3ncccc3F)c2)cc1 [Compound 11, N-[(3-fluoro-2-pyridyl)methyl]-1-(p-tolylsulfonyl) pyrrole-3-carboxamide] |
| 2400 nM | 14 mV | Cc1ccc(S(=O)(=O)n2ccc(C(=O)NCc3nccs3)c2)cc1 [Compound 51, 1-(4-methylbenzene-1-sulfonyl)-N-[(1,3-thiazol-2-yl)methyl]-1H-pyrrole-3-carboxamide] |
| 2000 nM | 14 mV | O=C(NCc1cnccn1)c1ccn(S(=O)(=O)c2ccccc2F)c1 [Compound 59, 1-(2-fluorobenzene-1-sulfonyl)-N-[(pyrazin-2-yl)methyl]-1H-pyrrole-3-carboxamide] |
| 1500 nM | 27 mV | Cc1cnc(CNC(=O)c2ccn(S(=O)(=O)c3ccccc3C)c2)cn1 [Compound 28, N-[(5-methylpyrazin-2-yl)methyl]-1-(o-tolylsulfonyl) pyrrole-3-carboxamide] |
| 2800 nM | 12 mV | Cc1cnc(CNC(=O)c2ccn(S(=O)(=O)c3ccccc3C)c2)o1 [Compound 80, 1-(2-methylbenzene-1-sulfonyl)-N-[(5-methyl-1,3-oxazol-2-yl)methyl]-1H-pyrrole-3-carboxamide] |
| 1700 nM | 25 mV | Cc1ccc(S(=O)(=O)n2ccc(C(=O)NCc3ncn(C)n3)c2)cc1 [Compound 42, N-[(1-methyl-1,2,4-triazol-3-yl)methyl]-1-(p-tolylsulfonyl)pyrrole-3-carboxamide] |
| 2900 nM | 21 mV | Cc1cnc(CNC(=O)c2ccn(S(=O)(=O)c3ccccc3)c2)c(C)n1 [Compound 111, 1-(benzenesulfonyl)-N-[(3,5-dimethylpyrazin-2-yl)methyl]-1H-pyrrole-3-carboxamide] |
| 1500 nM | 21 mV | COc1ccc(S(=O)(=O)n2ccc(C(=O)NCc3ccn(C)n3)c2)c(Cl)c1 [Compound 117, 1-(2-chloro-4-methoxybenzene-1-sulfonyl)-N-[(1-methyl-1H-pyrazol-3-yl)methyl]-1H-pyrrole-3-carboxamide] |
| 2000 nM | 22 mV | Cc1ccc(S(=O)(=O)n2ccc(C(=O)NCc3cn(C)cn3)c2)cc1 [Compound 40, N-[(1-methylimidazol-4-yl)methyl]-1-(p-tolylsulfonyl)pyrrole-3-carboxamide] |
| 2100 nM | 13 mV | COc1ccc(S(=O)(=O)n2ccc(C(=O)NCc3ncc(C)o3)c2)cc1 [Compound 73, 1-(4-methoxybenzene-1-sulfonyl)-N-[(5-methyl-1,3-oxazol-2-yl)methyl]-1H-pyrrole-3-carboxamide] |
